Key:
c-KIT = c-KIT (Homo sapiens, UniProt P10721); assay: Kinase inhibition activity test, isotope labeling: c-KIT; format: biochemical; details: for Activity inhibition rate c-Kit (h) / inhibition at 10 µM: test compound at a concentration of 10 μM; for IC50: ATP 200 μM, read-out: c-KIT IC50 value (inhibitory activity value); for inhibition at 10 µM: read-out: Activity inhibition rate c-Kit (h)
Experimental: (§1) The purpose of this experiment was to test the inhibitory activity of the compound of the invention for in vitro kinase with the isotope labeling method (the γ phosphate group on ATP was labeled). In this experiment, the in vitro activity inhibition of such kinases as FLT3, VEGFR2, FLT1, FLT4, RET, c-RAF, B-RAF, c-KIT, PDGFα, PDGFβ, FGFR2, FGFR1, EphA2, EphB2, SRC, ABL, ALK and Met was tested respectively. Staurosporine was reference molecule (or referred to as positive control). The kinase inhibition activity of the test compound was expressed by half-inhibitory concentration (IC50) or the kinase activity inhibition rate of the test compound at a concentration of 10 μM. The IC50 value could be obtained by calculating the kinase activity inhibition rate of the test compound at different concentrations.
(§2) 20 mM 3-(N-morpholinyl)propanesulfonic acid (MOPS); 1 mM ethylenediaminetetraacetic acid (EDTA), 0.01% Brij 35 (Brij-35), 5% glycerol, 0.1% mercaptoethanol, 1 mg/mL bovine serum albumin (BSA), 10 mM manganous dichloride solution (MnCl2), 0.1 mg/mL glutamic acid/tyrosine (4:1) polypeptide (poly(Glu, Tyr)4:1), 50 μM EAIYAAPFAKKK (substrate of FLT3), 0.33 mg/mL myelin basic protein (substrate of VEGFR2), 250 μM KKKSPGEYVNIEFG (substrate of FLT1(h)), 500 μM GGEEEEYFELVKKKK (substrate of FLT4(h)), 250 μM KKKSPGEYVNIEFG (substrate of RET), 0.66 mg/mL myelin basic protein (substrate of C-RAF), 250 μM GGMEDIYFEFMGGKKK (substrate of c-Kit), 250 μM GGMEDIYFEFMGGKKK (substrate of PDGFα), 250 μM KKKSPGEYVNIEFG (substrate of FGFR1), […] GGEEEEYFELVKKKK (substrate of SRC), 50 μM EAIYAAPFAKKK (substrate of ABL), 250 μM KKKSPGEYVNIEFG (substrate of ALK), 250 μM KKKSPGEYVNIEFG (substrate of Met(h)), 10 mM magnesium acetate and γ-^33 P-ATP solution, stop buffer (3% phosphate buffer), washing buffer (75 mM phosphate solution), methanol, Filtermat A membrane, FLT3, VEGFR2, FLT3, VEGFR2, FLT1, FLT4, RET, c-RAF, B-RAF, c-KIT, PDGFRα, PDGFRβ, FGFR2, FGFR1, EphA2, EphB2, SRC, ABL, ALK, Met and other kinases, and the test compounds.
(§3) Buffers (8 mM MOPS with pH value of 7.0, 0.2 mM EDTA and 10 mM MnCl2), (5-10 mU) kinases to be tested (FLT3, VEGFR2, FLT1, FLT4, RET, c-RAF, B-RAF, c-KIT, PDGFRα, PDGFRβ, FGFR2, FGFR1, EphA2, EphB2, SRC, ABL, ALK and Met), substrates of kinases to be tested (refer to experimental materials), 10 mM magnesium acetate and γ-^33 P-ATP solution, and test compounds at different concentrations were added to a reaction tube orderly. […] Reaction was terminated with 5 μL 3% phosphate buffer finally, and 10 μL reaction solution was titrated to the Filtermat A membrane; solution was washed for 3 times with 75 mM phosphate solution with each time lasting 5 minutes, and then washed once with methanol. Finally, the Filtermat A membrane was dried, and scintillation counting was performed on the membrane, with scintillation count reflecting the phosphorylation degree of the substrates, so that the activity inhibition of kinase could be characterized.

FGFR2 = FGFR2 (Homo sapiens, UniProt P21802); assay: Kinase inhibition activity test, isotope labeling: FGFR2; format: biochemical; details: for Activity inhibition rate FGFR2 (h) / inhibition at 10 µM: test compound at a concentration of 10 μM; for IC50: ATP 90 μM, read-out: FGFR2 IC50 value (inhibitory activity value); for inhibition at 10 µM: read-out: Activity inhibition rate FGFR2 (h)
Chain of FGFR2 (P21802 22-821): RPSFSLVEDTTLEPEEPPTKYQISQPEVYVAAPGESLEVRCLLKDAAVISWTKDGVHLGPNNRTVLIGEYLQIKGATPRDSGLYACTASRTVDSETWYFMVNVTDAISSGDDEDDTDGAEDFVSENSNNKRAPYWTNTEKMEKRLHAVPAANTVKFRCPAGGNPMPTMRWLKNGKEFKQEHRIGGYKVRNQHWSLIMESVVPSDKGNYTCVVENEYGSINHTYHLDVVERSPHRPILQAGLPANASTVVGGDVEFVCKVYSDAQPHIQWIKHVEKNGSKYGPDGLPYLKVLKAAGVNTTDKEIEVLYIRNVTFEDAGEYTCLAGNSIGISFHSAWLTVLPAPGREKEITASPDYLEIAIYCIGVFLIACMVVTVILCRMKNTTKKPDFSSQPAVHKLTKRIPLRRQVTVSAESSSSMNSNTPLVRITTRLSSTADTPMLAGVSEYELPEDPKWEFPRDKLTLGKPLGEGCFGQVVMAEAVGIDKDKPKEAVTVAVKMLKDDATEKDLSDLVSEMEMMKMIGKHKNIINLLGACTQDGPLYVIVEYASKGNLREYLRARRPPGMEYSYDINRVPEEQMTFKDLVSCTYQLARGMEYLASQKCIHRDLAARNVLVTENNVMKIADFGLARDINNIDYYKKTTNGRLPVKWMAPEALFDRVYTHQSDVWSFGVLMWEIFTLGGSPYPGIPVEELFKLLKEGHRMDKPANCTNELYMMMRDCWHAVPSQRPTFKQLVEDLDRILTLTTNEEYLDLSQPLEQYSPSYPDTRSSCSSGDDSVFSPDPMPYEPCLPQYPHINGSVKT
Experimental: as §1, §2, §3

[1] = tested on: human pancreatic carcinoma cell line panc-1; assay: In vitro tumor cell proliferation inhibition (MTT): panc-1; format: cell-based
From the text: (§4) The purpose of the experiment was to test the inhibition activity of the compounds of the invention for in vitro human tumor cell proliferation by the methyl thiazolyl tetrazolium (MTT) colorimetry.
(§5) Main reagents: RPMI-1640, fetal bovine serum, pancreatin, etc. were purchased from Gibco BRL Company (Invitrogen Corporation, USA) and IMDM medium that was purchased from American Type Culture Collection (ATCC). Methyl thiazolyl tetrazolium (MTT) and dimethyl sulfoxide (DMSO) were products from Sigma Company (USA). Pyrazolopyrimidine derivatives were composed by the inventor. During in vitro experiment, 100% DMSO was prepared into 10 mM storage solution, the solution was stored in a refrigerator at −20° C. for future use, and was diluted to the required concentration with complete culture solution before use.
(§6) Cell line and culture: Human leukemia cell line MV4-11, Jurkat, K562, human thyrophyma cell line TT, human gastric carcinoma cell line MKN-45, human malignant melanoma cell lines A375 and A875, human pancreatic carcinoma cell line panc-1, human cervical carcinoma cell line HELA, human colorectal carcinoma cell line HCT116, etc. were purchased from American type culture collection and were preserved by this laboratory. All leukemia cell lines (except MV4-11), gastric carcinoma cell lines and thyrophyma cell lines were cultured in RPMI-1640 complete medium containing 10% fetal bovine serum, 100 U/mL penicillin and 100 μg/mL streptomycin at 37° C. in 5% CO2. The remaining cell lines were cultured in DMEM complete medium containing 10% fetal bovine serum (containing 20% MV4-11 cell), 100 U/mL penicillin and 100 µg/mL streptomycin at 37° C. in 5% CO2.
(§7) Cell suspension with cell concentration of 1-2×10^4/mL was adjusted with the complete cell medium and inoculated in a 96-well plate, with each well filled with 200 μl cell suspension that was cultured overnight. On the next day, supernatant was sucked and abandoned (supernatant was sucked upon centrifugation of suspension cells), and then cells were processed with test compounds at gradient concentrations respectively. Meanwhile, a negative control group free from drug and a solvent control group with equal volume were set, and the DMSO concentration was 0.1%. Each dose group was provided with three wells and cultured at 37° C. in 5% CO2. After 72 hours, 20 μl 5 mg/mL MTT reagent was added to each well, and cultured for another 2 to 4 hours, the supernatant was abandoned; 150 μL DMSO was added to each well again, vibrated and mixed evenly for 15 minutes; the absorbance (A) values (proportional to living cell amount) were determined with a microplate reader (λ=570 nm) and averaged. […] Experiment was repeated for 3 times at least. Experimental data were expressed with means, data statistics were tested by t, and P<0.05 means that difference has a statistical significance. The cell proliferation inhibition effects of all compounds as follows are expressed by IC50 or inhibition rate.

[2] = tested on: human leukemia cell line Jurkat; assay: In vitro tumor cell proliferation inhibition (MTT): Jurkat; format: cell-based; details: 72 hours
From the text: as §4, §5, §6, §7

VEGFR2 = VEGFR2 (Homo sapiens, UniProt P35968); assay: Kinase inhibition activity test, isotope labeling (γ-33P-ATP): VEGFR2; format: biochemical; details: for Activity inhibition rate VEGFR2 (h) / inhibition at 10 µM: test compound at a concentration of 10 μM; for IC50: ATP 90 μM, read-out: VEGFR2 IC50 value (inhibitory activity value); for inhibition at 10 µM: read-out: Activity inhibition rate VEGFR2 (h)
Chain of VEGFR2 (P35968 20-1356): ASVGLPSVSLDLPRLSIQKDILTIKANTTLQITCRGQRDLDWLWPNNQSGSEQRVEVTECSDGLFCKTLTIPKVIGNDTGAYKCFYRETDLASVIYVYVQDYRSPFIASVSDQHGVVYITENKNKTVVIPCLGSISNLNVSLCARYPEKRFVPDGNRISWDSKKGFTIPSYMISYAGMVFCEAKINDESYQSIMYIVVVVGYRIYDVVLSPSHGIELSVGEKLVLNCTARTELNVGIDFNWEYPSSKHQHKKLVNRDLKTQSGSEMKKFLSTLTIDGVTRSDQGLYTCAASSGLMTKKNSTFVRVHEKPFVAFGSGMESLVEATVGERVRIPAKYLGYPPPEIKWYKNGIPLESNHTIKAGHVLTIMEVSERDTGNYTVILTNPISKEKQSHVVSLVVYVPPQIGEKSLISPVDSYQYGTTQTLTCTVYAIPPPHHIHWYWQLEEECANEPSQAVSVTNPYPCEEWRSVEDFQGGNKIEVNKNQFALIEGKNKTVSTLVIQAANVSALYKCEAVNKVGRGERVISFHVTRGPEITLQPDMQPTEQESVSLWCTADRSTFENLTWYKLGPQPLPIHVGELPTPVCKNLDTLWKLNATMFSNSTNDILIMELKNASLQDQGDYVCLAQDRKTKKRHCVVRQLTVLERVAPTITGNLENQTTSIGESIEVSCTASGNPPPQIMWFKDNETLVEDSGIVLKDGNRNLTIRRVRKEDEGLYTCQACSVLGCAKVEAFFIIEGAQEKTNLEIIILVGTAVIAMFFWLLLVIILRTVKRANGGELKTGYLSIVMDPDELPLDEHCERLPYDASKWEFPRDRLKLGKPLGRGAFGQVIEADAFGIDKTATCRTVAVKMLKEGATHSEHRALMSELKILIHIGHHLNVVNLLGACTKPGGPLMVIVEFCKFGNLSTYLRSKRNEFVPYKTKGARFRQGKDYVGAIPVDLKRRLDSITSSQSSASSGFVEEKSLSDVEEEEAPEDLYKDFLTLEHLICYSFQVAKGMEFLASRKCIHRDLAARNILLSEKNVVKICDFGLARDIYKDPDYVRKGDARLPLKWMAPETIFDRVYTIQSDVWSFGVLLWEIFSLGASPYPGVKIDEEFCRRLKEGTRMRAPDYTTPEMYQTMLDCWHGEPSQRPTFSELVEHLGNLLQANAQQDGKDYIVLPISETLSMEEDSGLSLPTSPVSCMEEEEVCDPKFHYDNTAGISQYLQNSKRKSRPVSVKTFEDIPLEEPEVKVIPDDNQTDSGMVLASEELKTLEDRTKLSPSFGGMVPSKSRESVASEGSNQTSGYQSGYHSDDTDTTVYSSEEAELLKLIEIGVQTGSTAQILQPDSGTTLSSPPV
Experimental: as §1, §2, §3

Chain of c-KIT (P10721 26-976): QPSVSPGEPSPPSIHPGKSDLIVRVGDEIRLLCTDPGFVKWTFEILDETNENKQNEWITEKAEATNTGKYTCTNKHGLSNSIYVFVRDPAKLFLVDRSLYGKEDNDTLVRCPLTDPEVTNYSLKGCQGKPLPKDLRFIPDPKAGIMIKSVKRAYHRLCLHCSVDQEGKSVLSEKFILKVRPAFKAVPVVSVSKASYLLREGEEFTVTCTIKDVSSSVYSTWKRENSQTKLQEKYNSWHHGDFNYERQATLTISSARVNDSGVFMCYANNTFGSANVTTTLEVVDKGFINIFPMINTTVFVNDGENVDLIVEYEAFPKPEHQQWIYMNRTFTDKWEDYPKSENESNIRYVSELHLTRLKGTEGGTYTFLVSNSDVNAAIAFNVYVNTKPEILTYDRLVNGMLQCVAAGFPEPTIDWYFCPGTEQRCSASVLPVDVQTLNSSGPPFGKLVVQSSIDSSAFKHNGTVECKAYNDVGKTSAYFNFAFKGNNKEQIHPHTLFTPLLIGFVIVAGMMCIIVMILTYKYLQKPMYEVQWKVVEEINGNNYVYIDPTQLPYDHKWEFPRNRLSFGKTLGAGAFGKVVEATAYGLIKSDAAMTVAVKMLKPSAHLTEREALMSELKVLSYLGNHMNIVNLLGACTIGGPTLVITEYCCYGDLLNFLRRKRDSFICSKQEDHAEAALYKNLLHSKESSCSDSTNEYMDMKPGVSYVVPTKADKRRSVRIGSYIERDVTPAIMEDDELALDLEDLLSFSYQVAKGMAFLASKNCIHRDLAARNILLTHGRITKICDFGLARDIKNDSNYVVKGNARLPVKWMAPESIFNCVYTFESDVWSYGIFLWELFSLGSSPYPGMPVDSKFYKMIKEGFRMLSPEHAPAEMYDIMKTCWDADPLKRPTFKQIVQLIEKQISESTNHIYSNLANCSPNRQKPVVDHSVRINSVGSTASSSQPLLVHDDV

| Compound | Activity inhibition rate c-Kit (h) (c-KIT) [%] | Activity inhibition rate FGFR2 (h) (FGFR2) [%] | IC50 ([1]; 72 hours) [µM] | IC50 [2] [µM] | Activity inhibition rate VEGFR2 (h) (VEGFR2) [%] | IC50 (c-KIT) [µM] | IC50 (FGFR2) [µM] | IC50 (VEGFR2) [µM] | inhibition at 10 µM (c-KIT) [%] | inhibition at 10 µM (FGFR2) [%] | IC50 ([1]; Homo sapiens, PANC-1, 72 hours) [µM] | IC50 ([2]; Homo sapiens, Jurkat) [µM] | inhibition at 10 µM (VEGFR2) [%] | Activity inhibition rate FGFR2 (h) (FGFR2; 10 µM) [%] | Activity inhibition rate VEGFR2 (h) (VEGFR2; 10 µM) [%] |
| --- | --- | --- | --- | --- | --- | --- | --- | --- | --- | --- | --- | --- | --- | --- | --- |
| C[C@H](NC(=O)Nc1ccc(Oc2ncnc3[nH]ncc23)cc1)c1ccccc1 [4a-18, (S)-1-(4-((1H-pyrazolopyrimidine-4-yl)oxy)phenyl)-3-(1-phenethyl)urea] | 100 | 22 | < 50 | 3 to 10 | 95 |  |  |  |  |  |  |  |  |  |  |
| CC(C)(C)c1cc(NC(=O)Nc2ccc(Oc3ncnc4[nH]ncc34)cc2)on1 [4a-25] | >90 | >50 | 3 to 10 | < 50 | 100 | 0.911 | < 10 | 0.012 |  |  |  |  |  |  |  |
| CC(C)(C)c1cc(NC(=O)Nc2ccc(Oc3ncnc4[nH]ncc34)cc2)no1 [4a-26] |  |  |  |  |  |  |  | 0.012 | > 90 | > 50 | 3 to 10 | 3 to 10 | 100 |  |  |
| O=C(Nc1ccc(Oc2ncnc3[nH]ncc23)cc1)Nc1cc(C(F)(F)F)on1 [4a-28] |  |  |  |  |  |  |  |  | > 90 | > 50 | < 50 | 3 to 10 | 100 |  |  |
| CC(C)(C)c1cc(NC(=O)Nc2ccc(Oc3ncnc4[nH]ncc34)c(F)c2)no1 [4a-31] | >90 | >50 | 3 to 10 | 6.1 | 100 | 0.087 | < 10 | 0.011 |  |  |  |  |  |  |  |
| O=C(Nc1cccc(Nc2ncnc3[nH]ncc23)c1)Nc1ccc(F)c(Cl)c1 [4b-1] |  |  |  |  |  |  |  |  | > 30 | 22 | < 50 | < 50 | 93 |  |  |
| C[C@@H](NC(=O)Nc1ccc(Nc2ncnc3[nH]ncc23)cc1)c1ccccc1 [4b-2, (R)-1-(4-(1H-pyrazolopyrimidine-4-amido)phenyl)-3-(1-phenethyl)urea] |  |  |  |  |  |  |  |  | > 30 |  | < 50 | < 50 | 88 | 66 |  |
| COc1cccc(NC(=O)Nc2ccc(Nc3ncnc4[nH]ncc34)cc2)c1 [4b-3] |  |  |  |  |  |  |  |  | > 30 | 45 | < 50 | < 50 | 96 |  |  |
| C[C@H](NC(=O)Nc1ccc(Nc2ncnc3[nH]ncc23)cc1)c1ccccc1 [4b-4] | >30 |  | < 50 | < 50 |  |  |  |  |  |  |  |  |  | 32 | 94 |
| COc1ccc(NC(=O)Nc2ccc(NC(=O)N3C=NC=C4NNC=C43)cc2)cc1 [4b-6, 1-(4-(1H-pyrazolopyrimidine-4-amido)phenyl)-3-(4-methoxyphenyl)urea] |  |  |  |  |  |  |  |  | > 30 | 32 | < 50 | < 50 | 95 |  |  |
| Cc1cc(C)c(NC(=O)Nc2ccc(NC(=O)N3C=NC=C4NNC=C43)cc2)c(C)c1 [4b-7, 1-(4-(1H-pyrazolopyrimidine-4-amido)phenyl)-3-(2,4,6-trimethylphenyl)urea] |  |  |  |  |  |  |  |  | > 30 | 69 | < 50 | < 50 | 92 |  |  |
| O=C(Nc1ccc(Sc2ncnc3[nH]ncc23)cc1)Nc1ccc(C(F)(F)F)cc1 [4c-1] |  |  |  |  |  |  |  |  | > 90 | > 50 | < 50 | < 50 | 100 |  |  |
| O=C(Nc1ccc(Sc2ncnc3[nH]ncc23)cc1)Nc1cccc(C(F)(F)F)c1 [4c-2] | >90 | >50 | < 50 | < 50 | 100 |  |  |  |  |  |  |  |  |  |  |
| CC(C)(C)c1cc(NC(=O)Nc2ccc(Sc3ncnc4[nH]ncc34)cc2)no1 [4c-3, 1-(4-(1H-pyrazolopyrimidine-4-sulfydryl)phenyl)-3-(5-tert-butylisoxazol-3-yl)urea] | >90 | >50 | < 50 | < 50 | 100 |  |  |  |  |  |  |  |  |  |  |
| CC(C)n1ncc2c(Oc3ccc(NC(=O)Nc4cc(C(C)(C)C)on4)cc3)ncnc21 [5a-4, 1-(5-tert-butylisoxazol-3-yl)-3-(4-(1-isopropyl-(1H-pyrazolopyrimidine-4-yl)oxy)phenyl)urea] |  |  |  |  |  |  |  |  | > 30 | > 30 | < 50 | < 50 | > 90 |  |  |

Reference: patent publication US9828375B2, “4-position substituted pyrazolopyrimidine derivative, and use thereof in drug preparation” (Guangxi Wuzhou Pharmaceuticals (Group) Co., Ltd., priority 2012, dated 2017)
